Assay results as given in publication PMC4335872, “Pharmacokinetic-Pharmacodynamic Analysis of Spiroindolone Analogs and KAE609 in a Murine Malaria Model” (Antimicrobial Agents and Chemotherapy, 2015).

What was measured:
P. berghei = assay: Dose fractionation and PK-PD analysis of KAE609 in the P. berghei malaria mouse model; format: in vivo, NMRI mice; settings: for Parasitemia (mean ± SD): 48 h posttreatment; for %T>TRE: simulated, 48-h period
Procedure: The total daily doses were either administered as a single dose (24 h postinfection) or divided into two oral doses (BID) or three oral doses (TID) per day (Table 1). Four mice were used for each regimen, with the control mice receiving vehicle only. Parasitemia, expressed as parasitized red blood cells (pRBCs) of >100 RBCs, was determined at 72 h postinfection (48 h after the initiation of treatment with KAE609) using standard flow cytometry techniques ([39]).
The concentration of compounds that inhibited 99% of P. berghei growth (IC99) was used to calculate the threshold (TRE = 2 × IC99) and the PK-PD indices. […] The Cmax/TRE, AUC0–48/TRE, and %T>TRE at different doses and dosing regimens were calculated using the Berkeley Madonna Software (version 8.0.1) (Berkeley Madonna, University of California, Berkeley, Berkeley, CA).
The relationship between PK-PD indices (log-transformed Cmax/TRE, log-transformed AUC0–48/TRE, and %T>TRE) and log-transformed parasitemia was analyzed by nonlinear regression analysis. An exploratory analysis of the PK-PD data was done using various models, such as maximum effect (Emax), sigmoid Emax, and with and without slope. A sigmoidal dose-response (variable-slope) model without constants was fitted to the data. GraphPad Prism version 5.02 for Windows (GraphPad Software, San Diego, CA, USA) was the software used for this analysis. The model choice was guided initially by a visual inspection of the y-by-x plots and then by correlation analysis and by evaluating the standard error of the estimate. The parasitemia (P) measures at any value of each different PK-PD index are expressed in equation 1, where EZ50 (otherwise referred to as EC50) is the value of the specific PK-PD index (Cmax/TRE, AUC0–48/TRE, and %T>TRE, respectively) required to produce 50% of the maximal effect, x is any of the PK-PD indices, and Pmax, Pmin, and s are as described previously. The values of x corresponding to the maximum reduction in parasitemia were derived by interpolation based on equation 1.

[1] = system: P. berghei GFP ANKA malaria strain PbGFPCON; design: method as in PMID 20813948; settings: cited from earlier work
[2] = system: P. vivax and P. falciparum; settings: cited from earlier work
[3] = interpolated from PK-PD model, 48 h observation
[4] = total dose 0.5 mg/kg p.o. as 1 x 0.5 mg/kg
[5] = total dose 0.5 mg/kg p.o. as 2 x 0.25 mg/kg (every 12 h)
[6] = total dose 0.5 mg/kg p.o. as 3 x 0.17 mg/kg (every 8 h)
[7] = total dose 1 mg/kg p.o. as 1 x 1 mg/kg
[8] = total dose 1 mg/kg p.o. as 2 x 0.5 mg/kg (every 12 h)
[9] = total dose 1 mg/kg p.o. as 3 x 0.33 mg/kg (every 8 h)
[10] = total dose 2 mg/kg p.o. as 1 x 2 mg/kg
[11] = total dose 2 mg/kg p.o. as 2 x 1 mg/kg (every 12 h)
[12] = total dose 2 mg/kg p.o. as 3 x 0.67 mg/kg (every 8 h)
[13] = total dose 4 mg/kg p.o. as 1 x 4 mg/kg
[14] = total dose 4 mg/kg p.o. as 2 x 2 mg/kg (every 12 h)
[15] = total dose 4 mg/kg p.o. as 3 x 1.33 mg/kg (every 8 h)
[16] = total dose 8 mg/kg p.o. as 1 x 8 mg/kg
[17] = total dose 8 mg/kg p.o. as 2 x 4 mg/kg (every 12 h)
[18] = total dose 8 mg/kg p.o. as 3 x 2.67 mg/kg (every 8 h)
[19] = patients, 30 mg daily for 3 days

## C[C@H]1Cc2c([nH]c3cc(Cl)c(F)cc23)[C@@]2(N1)C(=O)Nc1ccc(Cl)cc12 [(+)-7 (KAE609)]
P. berghei; P. berghei malaria mouse model
  Type of killing suggested by PK-PD analysis: time-dependent rather than concentration-dependent killing
P. berghei; TRE = 48 ng/ml
  AUC for reduction in parasitemia in the P. berghei murine malaria model: 28,176 ng · h/ml
  Cmax for reduction in parasitemia in the P. berghei murine malaria model: 1,440 ng/ml
P. berghei; as derived from Cmax/TRE (Table 5)
  Cmax needed to reduce parasitemia by 50% in vivo: 260 ng/mL
P. berghei; [3]
  AUC0–48/TRE ratio likely to result in the maximum reduction in parasitemia: 587
  Cmax/TRE ratio likely to result in the maximum reduction in parasitemia: 30
  T>TRE likely to result in the maximum reduction in parasitemia: 100%
P. berghei; parasitemia vs %T>TRE
  Hill slope, value (95% CI), PK-PD model for %T>TRE: −0.031 (−0.037 to −0.024)
  Pmax, value (95% CI), PK-PD model for %T>TRE: 53.09 (32.28 to 87.50)
  Pmin, value (95% CI), PK-PD model for %T>TRE: 0.15 (0.12 to 0.20)
P. berghei; parasitemia vs AUC0–48/TRE
  Hill slope, value (95% CI), PK-PD model for AUC0–48/TRE: −1.63 (−2.04 to −1.22)
  Pmax, value (95% CI), PK-PD model for AUC0–48/TRE: 32.66 (25.06 to 42.56)
  Pmin, value (95% CI), PK-PD model for AUC0–48/TRE: 0.13 (0.09 to 0.20)
P. berghei; [4]
  Parasitemia (mean ± SD): 28.82 ± 4.49%
  %T>TRE: 4.3%
P. berghei; [5]
  Parasitemia (mean ± SD): 38.28 ± 2.95%
  %T>TRE: 0%
P. berghei; [6]
  Parasitemia (mean ± SD): 35.37 ± 5.32%
  %T>TRE: 0%
P. berghei; [7]
  Parasitemia (mean ± SD): 17.82 ± 3.05%
  %T>TRE: 10.7%
P. berghei; [8]
  Parasitemia (mean ± SD): 18.19 ± 6.81%
  %T>TRE: 8.8%
P. berghei; [9]
  Parasitemia (mean ± SD): 20.31 ± 5.71%
  %T>TRE: 0%
P. berghei; [10]
  Parasitemia (mean ± SD): 5.64 ± 1.69%
  %T>TRE: 23.0%
P. berghei; [11]
  Parasitemia (mean ± SD): 6.48 ± 3.94%
  %T>TRE: 22.7%
P. berghei; [12]
  Parasitemia (mean ± SD): 10.83 ± 4.67%
  %T>TRE: 22.3%
P. berghei; [13]
  Parasitemia (mean ± SD): 0.63 ± 0.57%
  %T>TRE: 54.5%
P. berghei; [14]
  Parasitemia (mean ± SD): 0.43 ± 0.38%
  %T>TRE: 56.1%
P. berghei; [15]
  Parasitemia (mean ± SD): 0.55 ± 0.28%
  %T>TRE: 57.3%
P. berghei; [16]
  Parasitemia (mean ± SD): 0.15 ± 0.03%
  %T>TRE: 99.9%
P. berghei; [17]
  Parasitemia (mean ± SD): 0.18 ± 0.04%
  %T>TRE: 99.8%
P. berghei; [18]
  Parasitemia (mean ± SD): 0.16 ± 0.02%
  %T>TRE: 99.8%
[1]; P. berghei malaria mouse model
  Single oral dose giving 50% reduction in parasitemia: 1.2 mg/kg
  Single oral dose giving 90% reduction in parasitemia: 2.7 mg/kg
  Single oral dose giving 99% reduction in parasitemia: 5.3 mg/kg
[1]; single dose of 30 mg/kg
  Cure rate: 50%
[1]; single oral dose of 100 mg/kg
  Animals cured: 100%
[1]; thrice-daily oral doses of 50 mg/kg
  Cure: complete cure
[2]; 3-day dosing regimen of 30 mg daily, P. vivax and P. falciparum malaria patients
  Clinical outcome: clearing parasitemia
[2]; [19]
  AUC (average of two cohorts): 14,300 ng · h/ml
  Cmax (average of two cohorts): 855 ng/mL
